Columns and labels:
Assay type in all cases: cell-based
[1] = tested on: COS7 cells transfected with pEGFP-Q19-19; assay: Expression pattern of GFP fusion protein with polyglutamine stretch of normal length; conditions: 1 mM cystamine
Method: (§1) The COS7 cells were transfected with plasmid thus constructed. COS7 cells were seeded in Dulbecco's modified Eagle's medium (DMEM) containing 10% fetal calf serum the day before transfection at 3×10^4 per well of an 8-well chamber slide (Nunc Inc., Naperville, Ill.). The COS7 cells were transfected with 0.5 μg of plasmid DNA using the SuperFect transfection reagent (Qiagen, Hilden, Germany) according to the manufacturer's instructions.
To investigate whether the transglutaminase reaction is involved in the formation of aggregate bodies and the induction of apoptotic cell death, the inventors cultured COS7 cells in the presence of transglutaminase inhibitors (cystamine^28, monodansyl cadaverine (MDC)^29, and putrescine^30), after transfection. For tilis purpose, truncated DRPLA proteins were expressed as fusion proteins with green fluorescence protein (GFP), which allowed the highly sensitive observation of viable cells. The inserts of pEF-BOS-FQ82-19 and pEF-BOS-FQ19-19 were transferred into pEGFP containing the coding region for GFP. The resultant plasmid DNAs (pEGFP-FQ82-19 and pEGFP-FQ19-19) were transfected into COS7 cells. The plasmid DNA was constructed as below. […]

[2] = tested on: COS7 cells transfected with pEGFP-Q82-19; assay: Aggregate body formation in COS7 cells expressing truncated DRPLA protein with expanded polyglutamine stretch (GFP fusion)
Method: as §1
(§2) To investigate whether the transglutaminase reaction is involved in the formation of aggregate bodies and the induction of apoptotic cell death, the inventors cultured COS7 cells in the presence of transglutaminase inhibitors (cystamine^28, monodansyl cadaverine (MDC)^29, and putrescine^30), after transfection. For tilis purpose, truncated DRPLA proteins were expressed as fusion proteins with green fluorescence protein (GFP), which allowed the highly sensitive observation of viable cells. The inserts of pEF-BOS-FQ82-19 and pEF-BOS-FQ19-19 were transferred into pEGFP containing the coding region for GFP. The resultant plasmid DNAs (pEGFP-FQ82-19 and pEGFP-FQ19-19) were transfected into COS7 cells. The plasmid DNA was constructed as below. The segment coding for 3 histidines, the polyglutamine stretch and 19 amino acids downstream of the polyglutamine stretch of DRPLA cDNA (pDRPLAE or pDRPLAN) was amplified by PCR using a primer (5′-GGGAATTCGGATGCACCAT-[…]-3′) containing an EcoRI linker sequence and a primer (5′-[…]-3′). PCR products were digested with EcoRI and BamHI, and subcloned into the pEGFP-N1 expression vector (Clontech, Palo Alto, Calif.). The nucleotide sequences of all the constructs were confirmed using automated DNA sequencers (PE Applied Biosystems, Foster City, Calif.).
The effects of other transglutaminase inhibitor (MDC) on the aggregate formation and apoptotic cell death were also investigated. The TUNEL assay was performed using an In Situ Cell Death Detection Kit (Boehringer Mannheim, Mannheim, Germany) according to the manufacturer's instructions. FITC-conjugated dUTP was used for the terminal deoxynucleotidyl transferase reaction. An assay for nuclear fragmentation was performed by staining cells with […] Hoechst 33342. Quantitation was performed by analyzing 100 cells expressing the FLAG epitope. Statistical analyses were performed using Student's t test.

[3] = tested on: COS7 cells transfected with pEGFP-Q82-19; assay: Nuclear fragmentation (apoptotic cell death), Hoechst 33342 staining
Method: as §1, §2
The effects of other transglutaminase inhibitor (MDC) on the aggregate formation and apoptotic cell death were also investigated. The TUNEL assay was performed using an In Situ Cell Death Detection Kit (Boehringer Mannheim, Mannheim, Germany) according to the manufacturer's instructions. […] Quantitation was performed by analyzing 100 cells expressing the FLAG epitope. […]

[4] = even at 100 µM of cystamine, various concentrations

Structure (SMILES) | expression patterns of the fusion protein (in words) [1] | frequency of cells retaining a diffuse cytoplasmic expression pattern without aggregate formation ([2]; 1 mM cystamine, 60 hours after transfection, 32% in absence of cystamine, P<0.01) [%] | cells with formation of aggregate bodies ([2]; 1 mM cystamine, cultured for 60 hours, 42% without cystamine, P<0.01) [%] | suppression of aggregate bodies (in words) [2, 4] | nuclear fragmentation ([3]; 1 mM cystamine, 60 hours, 38% without cystamine, P<0.05) [%] | suppression of nuclear fragmentation (in words) [3, 4] | sizes of the aggregate bodies (in words) ([2]; presence of MDC compared to absence of MDC) | frequencies of the cells with aggregate formation (in words) ([2]; various concentrations of MDC) | suppression of nuclear fragmentation (in words) ([3]; various concentrations of MDC)
NCCSSCCN [cystamine] | did not change | 56 | 33 | suppression effects appeared in a dose-dependent manner | 24 | suppression effects appeared in a dose-dependent manner | – | – | –
CN(C)c1cccc2c(S(=O)(=O)NCCCCCN)cccc12 [MDC, monodansyl cadaverine] | – | – | – | – | – | – | smaller | no significant changes | Strong suppression

Source: patent publication US6355690B1, “Remedy for CAG repeat expansion diseases” (Niigata University, priority 1998, dated 2002)
